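Test compounds were applied to cells in 96-well plates for 48 hours at 5 doses. TGI marks complete inhibition of growth.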
Experiments:
Assay in all cases: growth of human tumour cells (NCI), 48 h
NCI-H460 lung = system: NCI-H460 lung
U251 CNS = system: U251 CNS
SN12C renal = system: SN12C renal
NCI-H522 lung = system: NCI-H522 lung
DLD-1 colon = system: DLD-1 colon
SK-MEL-28 melanoma = system: SK-MEL-28 melanoma
HOP-92 NSCLC = system: HOP-92 NSCLC
CCRF-CEM leukemia = system: CCRF-CEM leukemia
M14 melanoma = system: M14 melanoma
786-0 renal = system: 786-0 renal
SNB-78 CNS = system: SNB-78 CNS
RXF 393 renal = system: RXF 393 renal
SF-295 CNS = system: SF-295 CNS
HT29 colon = system: HT29 colon
EKVX NSCLC = system: EKVX NSCLC
DMS 114 small cell lung = system: DMS 114 small cell lung
A549 NSCLC = system: A549 NSCLC
NCI-H226 lung = system: NCI-H226 lung
RXF-631 renal = system: RXF-631 renal
OVCAR-8 ovarian = system: OVCAR-8 ovarian
HOP-18 NSCLC = system: HOP-18 NSCLC
SK-MEL-5 melanoma = system: SK-MEL-5 melanoma
TK-10 renal = system: TK-10 renal
UACC-62 melanoma = system: UACC-62 melanoma
SNB-75 CNS = system: SNB-75 CNS
A498 renal = system: A498 renal
HCT-15 colon = system: HCT-15 colon
UO-31 renal = system: UO-31 renal
COLO 205 colon = system: COLO 205 colon
IGROV1 ovarian = system: IGROV1 ovarian
ACHN renal = system: ACHN renal
SF-539 CNS = system: SF-539 CNS
CAKI-1 renal = system: CAKI-1 renal
LXFL 529 NSCLC = system: LXFL 529 NSCLC
MOLT-4 leukemia = system: MOLT-4 leukemia
MALME-3M melanoma = system: MALME-3M melanoma
HCT-116 colon = system: HCT-116 colon
SK-OV-3 ovarian = system: SK-OV-3 ovarian
SW-620 colon = system: SW-620 colon
UACC-257 melanoma = system: UACC-257 melanoma
RPMI-8226 leukemia = system: RPMI-8226 leukemia
LOX IMVI melanoma = system: LOX IMVI melanoma
NCI-H23 lung = system: NCI-H23 lung
KM12 colon = system: KM12 colon
OVCAR-3 ovarian = system: OVCAR-3 ovarian
DMS 273 small cell lung = system: DMS 273 small cell lung
K-562 leukemia = system: K-562 leukemia
HCC-2998 colon = system: HCC-2998 colon
M19-MEL melanoma = system: M19-MEL melanoma
SK-MEL-2 melanoma = system: SK-MEL-2 melanoma
SNB-19 CNS = system: SNB-19 CNS
HL-60(TB) leukemia = system: HL-60(TB) leukemia
SF-268 CNS = system: SF-268 CNS
OVCAR-5 ovarian = system: OVCAR-5 ovarian
KM20L2 colon = system: KM20L2 colon
HOP-62 NSCLC = system: HOP-62 NSCLC
OVCAR-4 ovarian = system: OVCAR-4 ovarian

For `COC12OCCN(CCO)C1=CC(=O)C1(C)N=NC(C)C12` (configuration not stated), the TGI (NCI-H460 lung) was greater than 100 µM, the TGI (U251 CNS) was greater than 100 µM and the TGI (SN12C renal) was greater than 100 µM. The TGI (NCI-H522 lung) was greater than 100 µM, the TGI (DLD-1 colon) was greater than 100 µM and the TGI (SK-MEL-28 melanoma) was greater than 100 µM. The TGI (HOP-92 NSCLC) was greater than 100 µM, the TGI (CCRF-CEM leukemia) was greater than 100 µM and the TGI (M14 melanoma) was greater than 100 µM. For the same molecule, the TGI (786-0 renal) was greater than 100 µM, the TGI (SNB-78 CNS) was greater than 100 µM and the TGI (RXF 393 renal) was greater than 100 µM. It also gave a TGI (SF-295 CNS) greater than 100 µM, a TGI (HT29 colon) greater than 100 µM and a TGI (EKVX NSCLC) greater than 100 µM. It also gave a TGI (DMS 114 small cell lung) greater than 100 µM, a TGI (A549 NSCLC) greater than 100 µM and a TGI (NCI-H226 lung) greater than 100 µM. For the same molecule, the TGI (RXF-631 renal) was greater than 100 µM, the TGI (OVCAR-8 ovarian) was greater than 100 µM and the TGI (HOP-18 NSCLC) was greater than 100 µM. For the same molecule, the TGI (SK-MEL-5 melanoma) was greater than 100 µM, the TGI (TK-10 renal) was greater than 100 µM and the TGI (UACC-62 melanoma) was greater than 100 µM. The TGI (SNB-75 CNS) was greater than 100 µM, the TGI (A498 renal) was greater than 100 µM and the TGI (HCT-15 colon) was greater than 100 µM. It also gave a TGI (UO-31 renal) greater than 100 µM, a TGI (COLO 205 colon) greater than 100 µM and a TGI (IGROV1 ovarian) greater than 100 µM. It also gave a TGI (ACHN renal) greater than 100 µM, a TGI (SF-539 CNS) greater than 100 µM and a TGI (CAKI-1 renal) greater than 100 µM. For the same molecule, the TGI (LXFL 529 NSCLC) was greater than 100 µM, the TGI (MOLT-4 leukemia) was greater than 100 µM and the TGI (MALME-3M melanoma) was greater than 100 µM. It also gave a TGI (HCT-116 colon) greater than 100 µM, a TGI (SK-OV-3 ovarian) greater than 100 µM and a TGI (SW-620 colon) greater than 100 µM. The TGI (UACC-257 melanoma) was greater than 100 µM, the TGI (RPMI-8226 leukemia) was greater than 100 µM and the TGI (LOX IMVI melanoma) was greater than 100 µM. For the same molecule, the TGI (NCI-H23 lung) was greater than 100 µM, the TGI (KM12 colon) was greater than 100 µM and the TGI (OVCAR-3 ovarian) was greater than 100 µM. It also gave a TGI (DMS 273 small cell lung) greater than 100 µM, a TGI (K-562 leukemia) greater than 100 µM and a TGI (HCC-2998 colon) greater than 100 µM. For the same molecule, the TGI (M19-MEL melanoma) was greater than 100 µM.

With `CC(C)C(N=c1c2ccccc2n(O)c2ccccc12)C(=O)O` (configuration not stated) the TGI (NCI-H460 lung) was greater than 100 µM, the TGI (U251 CNS) was greater than 100 µM and the TGI (SN12C renal) was greater than 100 µM. It also gave a TGI (NCI-H522 lung) greater than 100 µM, a TGI (DLD-1 colon) greater than 100 µM and a TGI (SK-MEL-28 melanoma) greater than 100 µM. For the same molecule, the TGI (CCRF-CEM leukemia) was greater than 100 µM, the TGI (M14 melanoma) was greater than 100 µM and the TGI (786-0 renal) was greater than 100 µM. It also gave a TGI (SNB-78 CNS) greater than 100 µM, a TGI (SF-295 CNS) greater than 100 µM and a TGI (SK-MEL-2 melanoma) greater than 100 µM. The TGI (SNB-19 CNS) was greater than 100 µM, the TGI (HT29 colon) was greater than 100 µM and the TGI (EKVX NSCLC) was greater than 100 µM. For the same molecule, the TGI (DMS 114 small cell lung) was greater than 100 µM, the TGI (A549 NSCLC) was greater than 100 µM and the TGI (NCI-H226 lung) was greater than 100 µM. For the same molecule, the TGI (RXF-631 renal) was greater than 100 µM, the TGI (OVCAR-8 ovarian) was greater than 100 µM and the TGI (HOP-18 NSCLC) was greater than 100 µM. The TGI (SK-MEL-5 melanoma) was greater than 100 µM, the TGI (TK-10 renal) was greater than 100 µM and the TGI (UACC-62 melanoma) was greater than 100 µM. It also gave a TGI (SNB-75 CNS) greater than 100 µM, a TGI (A498 renal) greater than 100 µM and a TGI (HCT-15 colon) greater than 100 µM. It also gave a TGI (UO-31 renal) greater than 100 µM, a TGI (HL-60(TB) leukemia) greater than 100 µM and a TGI (COLO 205 colon) greater than 100 µM. It also gave a TGI (IGROV1 ovarian) greater than 100 µM, a TGI (ACHN renal) greater than 100 µM and a TGI (SF-268 CNS) greater than 100 µM. The TGI (OVCAR-5 ovarian) was greater than 100 µM, the TGI (CAKI-1 renal) was greater than 100 µM and the TGI (LXFL 529 NSCLC) was greater than 100 µM. The TGI (MALME-3M melanoma) was greater than 100 µM, the TGI (HCT-116 colon) was greater than 100 µM and the TGI (SK-OV-3 ovarian) was greater than 100 µM. For the same molecule, the TGI (SW-620 colon) was greater than 100 µM, the TGI (UACC-257 melanoma) was greater than 100 µM and the TGI (RPMI-8226 leukemia) was greater than 100 µM. The TGI (LOX IMVI melanoma) was greater than 100 µM, the TGI (NCI-H23 lung) was greater than 100 µM and the TGI (KM12 colon) was greater than 100 µM. For the same molecule, the TGI (KM20L2 colon) was greater than 100 µM, the TGI (OVCAR-3 ovarian) was greater than 100 µM and the TGI (DMS 273 small cell lung) was greater than 100 µM. For the same molecule, the TGI (K-562 leukemia) was greater than 100 µM, the TGI (HOP-62 NSCLC) was greater than 100 µM and the TGI (HCC-2998 colon) was greater than 100 µM. It also gave a TGI (OVCAR-4 ovarian) greater than 100 µM and a TGI (M19-MEL melanoma) greater than 100 µM.

For `O=C(Cc1nc(-c2ccccc2)cc(=O)n1-c1ccccc1Cl)c1ccncc1`, the TGI (NCI-H460 lung) was greater than 100 µM, the TGI (U251 CNS) was greater than 100 µM and the TGI (SN12C renal) was greater than 100 µM. The TGI (NCI-H522 lung) was greater than 100 µM, the TGI (DLD-1 colon) was greater than 100 µM and the TGI (SK-MEL-28 melanoma) was greater than 100 µM. For the same molecule, the TGI (HOP-92 NSCLC) was greater than 100 µM, the TGI (CCRF-CEM leukemia) was greater than 100 µM and the TGI (M14 melanoma) was greater than 100 µM. It also gave a TGI (786-0 renal) greater than 100 µM, a TGI (SNB-78 CNS) greater than 100 µM and a TGI (RXF 393 renal) greater than 100 µM. It also gave a TGI (SF-295 CNS) greater than 100 µM, a TGI (SK-MEL-2 melanoma) greater than 100 µM and a TGI (SNB-19 CNS) greater than 100 µM. It also gave a TGI (HT29 colon) greater than 100 µM, a TGI (EKVX NSCLC) greater than 100 µM and a TGI (DMS 114 small cell lung) greater than 100 µM. For the same molecule, the TGI (A549 NSCLC) was greater than 100 µM, the TGI (NCI-H226 lung) was greater than 100 µM and the TGI (RXF-631 renal) was greater than 100 µM. The TGI (OVCAR-8 ovarian) was greater than 100 µM, the TGI (HOP-18 NSCLC) was greater than 100 µM and the TGI (SK-MEL-5 melanoma) was greater than 100 µM. The TGI (TK-10 renal) was greater than 100 µM, the TGI (UACC-62 melanoma) was greater than 100 µM and the TGI (SNB-75 CNS) was 82.6 µM. The TGI (A498 renal) was greater than 100 µM, the TGI (HCT-15 colon) was greater than 100 µM and the TGI (UO-31 renal) was greater than 100 µM. For the same molecule, the TGI (HL-60(TB) leukemia) was greater than 100 µM, the TGI (COLO 205 colon) was greater than 100 µM and the TGI (IGROV1 ovarian) was greater than 100 µM. It also gave a TGI (ACHN renal) greater than 100 µM, a TGI (SF-539 CNS) greater than 100 µM and a TGI (SF-268 CNS) greater than 100 µM. For the same molecule, the TGI (OVCAR-5 ovarian) was greater than 100 µM, the TGI (CAKI-1 renal) was greater than 100 µM and the TGI (LXFL 529 NSCLC) was greater than 100 µM. For the same molecule, the TGI (MALME-3M melanoma) was greater than 100 µM, the TGI (HCT-116 colon) was greater than 100 µM and the TGI (SK-OV-3 ovarian) was greater than 100 µM. The TGI (SW-620 colon) was greater than 100 µM, the TGI (UACC-257 melanoma) was greater than 100 µM and the TGI (LOX IMVI melanoma) was greater than 100 µM. For the same molecule, the TGI (NCI-H23 lung) was greater than 100 µM, the TGI (KM12 colon) was greater than 100 µM and the TGI (KM20L2 colon) was greater than 100 µM. It also gave a TGI (OVCAR-3 ovarian) greater than 100 µM, a TGI (DMS 273 small cell lung) greater than 100 µM and a TGI (K-562 leukemia) greater than 100 µM. The TGI (HOP-62 NSCLC) was greater than 100 µM, the TGI (HCC-2998 colon) was greater than 100 µM and the TGI (OVCAR-4 ovarian) was greater than 100 µM. For the same molecule, the TGI (M19-MEL melanoma) was greater than 100 µM.

Reference: PubChem BioAssay (NCI)
